Experimental data: US12241099B2, “Peptide therapeutics for treating Alzheimer's disease and related conditions” (The Board of Regents of the University of Oklahoma, priority 2018, dated 2025)
Residues, ends and D or L forms follow the SMILES beside them.

Experiments:
Aβ1-42 [1] = biological target: T1, Aβ1-42 (Homo sapiens, UniProt P05067); assay: ELISA binding of Aβ1-42 to plate-coated neutrophil proteins and derived peptides; conditions: 150 nM Aβ1-42; plate coated with protein/peptide at 5 μg/ml; no protease inhibitor
T1 sequence (P05067 672-713 limits assumed): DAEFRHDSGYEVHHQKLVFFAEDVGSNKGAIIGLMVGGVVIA
Procedure: CAP37, NE, and CG were purified from human neutrophils and purchased from Athens Research and Technology. BSA was from Sigma Aldrich. CAP37-derived peptides were synthesized by CS Bio Co with a purity >95%. Maxisorp plates from Nunc were coated with 100 μl neutrophil protein, peptide, or BSA diluted at 5 μg/ml in PBS with or without 1 mM PMSF purchased from Sigma Aldrich (for experiments with CAP37, NE, and BSA) or ±125 μM chymostatin purchased from Santa Cruz (for experiments with CG and BSA). Plate coating was done at room temperature for 2 hours with shaking and then at 4° C. overnight. Plates were washed three times in PBST (PBS+0.05% tween), then blocked with 3% BSA in PBST for 1 hour at room temperature with shaking. Plates were washed 3× in PBST, and 150 nM Aβ1-42 (purchased from Bachem and reconstituted in 1 mM NaOH) was added in 0.1% BSA in PBST and incubated 70 minutes at 37° C. Plates were then washed 4 times with PBST and monoclonal mouse anti-amyloid precursor protein/amyloid beta antibody, purchased from Cell Signaling Technology was added at a 1:500 dilution in 1% BSA in PBST and incubated for 1 hour at room temperature with shaking. Plates were washed 4× in PBST and donkey anti mouse HRP-conjugated secondary antibody from Jackson ImmunoResearch Laboratories was added at 1:10,000 in PBST and incubated 1 hour at room temperature with shaking, then washed 4 times in PBST. […] Sulfuric acid (5N) was added to each well to stop the reaction, and the absorbance at 492 nm was read on a Biotek Synergy II plate reader.

[2] = test system: mouse neuroblastoma cell line Neuro-2a; assay: Neurotoxicity assay of Aβ1-42 fibrils/oligomers (trypan blue cell death); type: cell-based; conditions: oligomers formed 15 min in presence of increasing concentrations; 18 μM Aβ1-42 on cells, 24 hours
Procedure: A mouse neuroblastoma cell line Neuro-2a from ATCC was used for these experiments. Cells were grown and seeded in 96 well plates at 20,000 cells per well in complete medium (MEM α, nucleosides, no phenol red from Gibco, with 10% heat inactivated fetal bovine serum from Gibco, and penicillin/streptomycin from Lonza). At 24 hours after seeding, cells were washed with warmed MEM α, and then incubated in 90 μl MEM α+N2 Supplements+20 μl test sample (Aβ1-42 prepared as described below). Cells were incubated another 24 hours at 37° C., and then dislodged by pipetting up and down vigorously. 10 μl of cells were added to 10 μl trypan blue dye (0.4% solution) from BioRad, mixed and counted in a BioRad TC20 cell counter. The percent of living and dead cells was recorded for each well. In the case of the water and Triton X100 controls, 20 μl MEM α+N2 Supplements was added instead of the test sample and, just before counting the cells, 20 μl of medium was removed and replaced with 20 μl water or Triton X100 at a final concentration of 0.1%.
Monomeric Aβ1-42 (hexafluoroisopropanol treated Aβ1-42) from Bachem was reconstituted at 5 mM in anhydrous DMSO. Untreated Aβ1-42 from CS Bio was also used in these experiments. It was first treated with 1 mM in hexafluoroisopropanol from Sigma Aldrich, incubated 30 min at room temperature, and left open to dry in the fume hood overnight. It was then vacuum desiccated for 1 hour at room temperature. Dry films of Aβ1-42 were stored at −20° C. until use to keep it under a monomeric form. Aβ1-42 from CS Bio was also reconstituted in anhydrous DMSO at 5 mM before use.
To prepare the fibril and oligomer test samples, monomeric Aβ1-42 was placed under conditions favoring either formation of fibrils or oligomers. To form fibrils, 100 μM Aβ1-42 was added to Anaspec fibrillation buffer A±neutrophil protein, and incubated at 37° C. 24 hours before addition to the cells at a final concentration of 18 μM. Neutrophil proteins were used at Aβ/Protein ratios that led to 50% inhibition of fibrillation (IC50), previously determined for each protein in the fibrillation assay. To form oligomers, MEM α+N2 Supplements was used instead of the fibrillation buffer A±increasing concentrations of neutrophil protein or CAP37-derived peptide. Each mixture was then added to a tube containing freshly prepared Aβ1-42 in DMSO at a final concentration of 100 μM, and incubated 15 min at room temperature. These test samples were then tested on the cells at a final concentration of 18 μM.
Oligomers were formed by incubating 100 μM Aβ1-42 in MEMα+N2 Supplements at 4° C. for 3 days. […] Finally, these oligomers were added to neurons at a final concentration of 18 μM, and percent cell death was measured at 24 h.

Aβ1-42 [3] = biological target: T1, Aβ1-42; assay: Amyloid Beta (1-42) Thioflavin T fibrillation (aggregation) assay; type: biochemical; parameters: used to monitor the formation of Aβ1-42 peptide fibrils; purchased Anaspec
Procedure: The Amyloid Beta (1-42) Thioflavin T Aggregation Kit was purchased from Anaspec and used to monitor the formation of Aβ1-42 peptide fibrils, according to the manufacturer's instructions, with some modifications. Thioflavin T dye was diluted to 250 μM in fibrillation buffer A and kept in the dark until use. […] Neutrophil proteins were tested in the absence and presence of protease inhibitors. […] Chymostatin was dissolved in DMSO and used at 125 μM final concentration in reactions with CG. Reactions were pipetted up and down twice in the wells with a multichannel pipette to ensure mixing, and fluorescence (ΔEX=440 nm, ΔEm=485 nm) was read every 5 minutes for 3 hours on a BioTek Synergy 2 plate reader with Gen 5 software, with a sensitivity set at 65.

Aβ1-42 [4] = biological target: T1, Aβ1-42; assay: Enzyme activity assay (cleavage of Aβ1-42, MALDI-TOF); type: biochemical; parameters: used to monitor the formation of Aβ1-42 peptide fibrils; purchased Anaspec
Procedure: Aβ1-42 treated with hexafluoroisopropanol was purchased from Bachem and reconstituted in anhydrous DMSO at 5 mM. Reactions were set up with increasing concentrations of enzyme (CAP37, NE or CG) and 10 μM Aβ1-42 substrate in PBS, and incubated at 37° C. for 1 hour. Reactions were stopped by the addition of acetonitrile and trifluoroacetic acid (TFA) to final concentrations of 7.5% and 0.5% respectively. Internal standard (Aβ40-1 from Bachem) dissolved in 10% acetic acid was added to a final concentration of 8 μg/ml. A 10 μl aliquot of this mixture was desalted on a C18 OMIX tip from Agilent Technologies. First, the C18 resin was rinsed with 2×10 μl of 50% methanol, then 2×10 μl of equilibration buffer (5% acetonitrile 0.5% TFA), then the sample was applied to the resin by pipetting 10 times through the resin, which was then washed twice with equilibration buffer and eluted with 75% acetonitrile 0.1% TFA.
Desalted samples were analyzed by Matrix Assisted Laser Desorption/Ionization-Time of Flight mass spectrometry (MARLDI-TOF) using a Bruker Ultraflex II instrument and Flex Control Software. […] Chromatographs were analyzed with Flex Analysis software. […] The ratio of the Aβ1-42 peak intensity divided by the internal standard peak intensity was calculated for each spot, and triplicate spots were averaged to determine the amount of uncleaved Aβ in each enzymatic reaction.

binding of Aβ1-42 (Aβ1-42 [1]): binds | IC50 (Aβ1-42 [3]; at time of complete fibrillation of Aβ1-42 control, no protease inhibitor): ~1000 nM | inhibition of Aβ1-42 fibrillation (in words) (Aβ1-42 [3]; increasing concentrations of peptide, Rfu): able to inhibit fibrillation | molar ratio inhibitor/Aβ1-42 corresponding to IC50 of fibrillation (Aβ1-42 [3]; ratio at IC50): 1/10 | enzymatic activity on Aβ1-42 (Aβ1-42 [4]): do not have enzymatic activities
Compound: CC(C)C[C@H](NC(=O)[C@H](CCCNC(=N)N)NC(=O)CNC(=O)CNC(=O)[C@H](CO)NC(=O)[C@H](CCCNC(=N)N)NC(=O)[C@H](Cc1c[nH]c2ccccc12)NC(=O)[C@H](CO)NC(=O)CNC(=O)[C@H](Cc1c[nH]c2ccccc12)NC(=O)CNC(=O)[C@H](C)NC(=O)[C@@H](NC(=O)[C@H](CCC(N)=O)NC(=O)[C@H](CS)NC(=O)[C@H](CCCNC(=N)N)NC(=O)[C@@H](NC(=O)CN)[C@@H](C)O)C(C)C)C(=O)N[C@@H](CO)C(=O)N[C@@H](CCCNC(=N)N)C(=O)N[C@@H](Cc1ccccc1)C(=O)N1CCC[C@H]1C(=O)N[C@@H](CCCNC(=N)N)C(=O)N[C@@H](Cc1ccccc1)C(=O)N[C@H](C(=O)N[C@@H](CC(N)=O)C(=O)N[C@H](C(=O)O)C(C)C)C(C)C [120-146 WR] (H-GTRCQVAGWGSWRSGGRLSRFPRFVNV-OH; N-terminus and C-terminus assumed)
effect on Aβ1-42 oligomer toxicity [2]: significantly inhibited
